Experimental data reported in patent publication US6303621A, “Method for treating cancers using a diiodo thyronine analogue having no significant hormonal activity and a vinca alkaloid and compositions comprising the same” (priority 1999, dated 2001).
“Also recorded” adds a separate entry of the source. Values belong to the compound of their own block, whether it stands above or below them.

What was measured:
human cancer cells [1] = experiment: Cytostatic / cytocidal activity of DIME analogues on human cancer cells; type: cell-based
Source text: Such tests may also screen for the ability of a particular compound to inhibit malignant tumor cell growth in vitro or in vivo or abolish tumorigenicity of malignant cells.
As will be appreciated by the skilled artisan, many varieties of malignant tumor cell cultures and cell lines may be used to screen for activity, including but not limited to HL-60, HT-144, E-ras-20, DU-145, MDA-168, MCF-7, 855-2 and MDA-MB-231. Of course, other in vitro and/or in vivo assays as will be apparent to the skilled artisan to screen for anti-tumor and/or anti-cancer activity may also be employed to identify effective diiodo thyronine analogues useful in the present invention.

malignant tumor growth = experiment: Activity of DIME in vivo (general statement)
human cancer cells [2] = conditions: studies set forth in U.S. Ser. Nos. 08/655,267 and 08/833,272; cited from earlier work
[3] = tested on: MDA-MB-231 human mammary cancer cells; experiment: Cell growth kinetics, median effect and isobologram; type: cell-based; conditions: 0.75 μM DIME (or DIPE) or 1-2 nM vincristine alone
Experimental: (§1) c. MDA-MB-231 human mammary cancer cells were cultured and treated as reported previously by Mendeleyev et al., International Journal of Oncology 10:689-695 (1997) and Zhen et al., International Journal of Oncology 10:689-695 (1997). For the assay of cell growth kinetics cells, were seeded into 2cm^2 wells (24-well plates) at a density of 8×10^3 /cm^2 at the time of seeding. Vincristine (or vinblastine) and DIME (or DIPE) were added from DMSO dilutions (1-2 μl/ 500 μl culture mediim) either from separate drug solutions or for the construction of median effect plot (FIG. 1) from a pre-made mixture of both drugs (e.g. 0.75 μM DIME+2 nM vincristine) and simultaneous dilutions thereof (Chou et al. Eur. J. Biochem. 115: 207-216 (1981)). The cultures were incubated at 37° C. for 4 days and growth rates, leading to near confluency in drug-free controls, were monitored by cell counting in a haemocytometer after detachment by trypsin treatment Mendeleyev et al., International Journal of Oncology 10:689-695 (1997) and Zhen et al., International Journal of Oncology 10:689-695 (1997). Mathematical analysis of growth curves and median effects and isobolograms were carried out by published procedures (Chou et al. J. Theor. Biol. 65: 345-356 (1977), Chou et al. Eur. J. Biochem. 115: 207-216 (1981) and Chou et al. Adv. in Enzyme Regulation 22:27-55 (1984)) and error bars indicate SD=Σx^2 +L -(Σx)^2 /n where X is the numerical results with n=3-5.
Kinetics of vincristine-DIME interactions: Interpretation of conventional isobolograms, consisting of plots of I50 values of two drugs alone and in combination is valid only if it is proven kinetically that both drugs bind at mutually exclusive sites.
Isobologram analysis of the combined action of DIME and vincristine is illustrated in FIG. 2, and it is evident that the action of the two drugs in combination exceed an additive effect, which is depicted by a concave curve, contrasting with additive action, which would display a straight line connecting the I50 values for each drug alone (dotted line in FIG. 2). […]

[4] = tested on: esterase activity in certain tumor cells; experiment: Stability to hydrolysis (esterase); conditions: versus DIME
tubulin α+β = experiment: Inhibition of tubulin polymerization / assembly of microtubules; type: biochemical; conditions: FIG. 4b
Experimental: The optical tests were performed as reported by Buki et al., International Journal of Oncology 10:911-913 (1997).

[5] = tested on: MDA-MB-231 human mammary cancer cells; experiment: Colony formation (cell killing); type: cell-based; conditions: FIG. 4a
Experimental: as §1
e. Colony formation was quantitated as reported by. Each colony of 50 cells is the outgrowth from one cell, plated 10 days before colony counting.

microtubules = experiment: Microtubule binding
[6] = tested on: Ras and apoptosis-regulating kineses (ASK1), pathways; conditions: Wang et al.; cited from earlier work
thyroid = conditions: rat, in vivo; cited from earlier work
tadpole metamorphosis = conditions: in vivo; cited from earlier work
[7] = tested on: non-malignant mouse pituitary adenoma; conditions: in vivo; cited from earlier work
[8] = tested on: metaphase arrest in cancer cells; experiment: Metaphase block (mitotic block); type: cell-based; conditions: FIG. 7
Source text: Metaphase was quantitated as reported by Mendeleyev et al., International Journal of Oncology 10:689-695 (1997).
Since vincristine and vinblastine were equivalent here we illustrate only DIME-vinblastine interaction on mitotic block.

caspase 3 [9] = experiment: Caspase 3 in cell-free extracts treated with drugs; type: biochemical; conditions: results not shown
leukemias = conditions: in vivo; cited from earlier work
caspase 3 [10] = experiment: Caspase 3 assay in drug-treated cells; type: cell-based, human; conditions: 0.75 μM DIME or 2 nM vincristine alone, 3 days
Experimental: g. Caspase 3 assay. MDA 231 cells were grown for 3 days in the absence of drugs (control) or in the presence of 0.75 μM DIME, or in the presence of 2 nM vincristine, or in the presence of both drugs. After harvesting and washing the cells with PBS, they were lysed in a lysis buffer (10 mM HEPES, 5 mM DTT, 2 mM EDTA, 1 mM PMSF, 0.1% CHAPS, 20 μg/ml each of aprotinin, leupeptin, pepstatin, pH 7.4), and were frozen and thawed 3 times. […] Each cell extract was incubated at room temperature with and without preincubation with the caspase inactivator DEVD-CMK. The difference of fluorescence was plotted against time. The fluorescence was calibrated with the fluorophore AFC.

[11] = vindesine versus vincristine; cited from earlier work

SMILES: CCCOc1ccc(Oc2c(I)cc(C(=O)OC)cc2I)cc1 [Compound 3]
- Cytostatic and cytocidal activity in cellular assays (human cancer cells [1]): completely inactive
- Activity in vivo (malignant tumor growth): completely inactive

SMILES: CCOC(=O)c1cc(I)c(Oc2ccc(OC)cc2)c(I)c1 [Compound 5, Ethyl 3,5-diiodo-4-(4'-methoxyphenoxy)benzoate]
- Cytostatic and cytocidal activity in cellular assays (human cancer cells [1]): completely inactive
- Activity in vivo (malignant tumor growth): completely inactive

SMILES: COC(=O)c1cc(I)c(Oc2ccc(OC)cc2Cl)c(I)c1 [Compound 14, Methyl 3,5-diiodo-4-(2'-chloro-4'-methoxyphenoxy)benzoate]
- maximal inhibitory action on the growth of human cancer cells as compared to DIME (human cancer cells [2]): about 25%

- Stability to hydrolysis [4]: non-hydrolyzable
- Binding to microtubules (microtubules): bind to microtubules
SMILES: COc1ccc(Oc2c(I)cc(C(C)=O)cc2I)cc1 [DIPE, 1-[3,5-diiodo-4-(4'-methoxyphenoxy)-phenyl]-ethanone]
- Growth rate with single drug [3]: do not elicit effects that exceed the SD of average cell growth rates
- Inhibition of assembly of microtubules, DIME versus DIPE (tubulin α+β): equivalency; also recorded: Inhibitory effects
- Inhibition of colony formation, DIME versus DIPE [5]: equivalency; also recorded: Equivalent effectivity

SMILES: CC(=O)O[C@H]1C(=O)[C@@]2(C)[C@H]([C@H](OC(=O)c3ccccc3)[C@]3(O)C[C@H](OC(=O)[C@H](O)[C@@H](NC(=O)c4ccccc4)c4ccccc4)C(C)=C1C3(C)C)[C@]1(OC(C)=O)CO[C@@H]1C[C@@H]2O [taxol]
- Activation of Ras and ASK1 pathways [6]: can activate both Ras and apoptosis-regulating kineses (ASK1), pathways

SMILES: NC(Cc1cc(I)c(Oc2cc(I)c(O)c(I)c2)c(I)c1)C(=O)O (stereo not shown) [thyroxine, reference compound]
- Uptake of iodine by the thyroid (thyroid): suppresses uptake of iodine by the thyroid
- Metabolic or cell differentiating activity (tadpole metamorphosis) (tadpole metamorphosis): induces cell differentiation
- Growth of non-malignant mouse pituitary tumor [7]: depress growth

SMILES: CC[C@]1(O)C[C@@H]2CN(CCc3c([nH]c4ccccc34)[C@@](C(=O)OC)(c3cc4c(cc3OC)N(C)[C@H]3[C@@](O)(C(=O)OC)[C@H](OC(C)=O)[C@]5(CC)C=CCN6CC[C@]43[C@@H]65)C2)C1 [vinblastine]
- Combined action with DIME on metaphase arrest, vincristine versus vinblastine [8]: equivalent

SMILES: CC[C@]1(O)C[C@H]2CN(CCc3c([nH]c4ccccc34)[C@@](C(=O)OC)(c3cc4c(cc3OC)N(C=O)[C@H]3[C@@](O)(C(=O)OC)[C@H](OC(C)=O)[C@]5(CC)C=CCN6CC[C@]43[C@@H]65)C2)C1 [vincristine, reference compound]
- Caspase 3 increase in cell-free extracts (caspase 3 [9]): do not show an increase in caspase 3
- Combined action with DIME on metaphase arrest, vincristine versus vinblastine [8]: equivalent
- Growth rate with single drug [3]: do not elicit effects that exceed the SD of average cell growth rates; also recorded: fall within SD values
- Activity in leukemias (leukemias): most active and useful agent in the treatment of leukemias
- Activation of caspase 3, single drug (caspase 3 [10]): small rate of caspase 3 activity

SMILES: CC[C@]1(O)C[C@@H]2CN(CCc3c([nH]c4ccccc34)[C@@](C(=O)OC)(c3cc4c(cc3OC)N(C)[C@H]3[C@@](O)(C(N)=O)[C@H](O)[C@]5(CC)C=CCN6CC[C@]43[C@@H]65)C2)C1 [vindesine, 4-desacetyl vinblastine C-3 carboxamide]
- Neurotoxicity in humans [11]: less neurotoxicity than does vincristine
- Activity in leukemias (leukemias): active in certain leukemias
